The pEC50 is the EC50 on a negative log10 scale, so that one unit is a factor of ten. One may read the pKi as the negative decadic logarithm of the Ki, by convention in mol/L. High values mean a small Ki, low ones a large Ki.

pEC50, pKi: −log10 of the molar value.

The results in this text go back to ChEMBL document CHEMBL1131704, “trans-2,6-,3,6- and 4,6-diaza-5,6,6a,7,8,12b-hexahydro-benzo[c]phenanthrene-10,11- diols as dopamine agonists” (Bioorg Med Chem Lett, 1999).

Assay [1] addresses T1, D(1A) dopamine receptor (Homo sapiens, UniProt P21728). Briefly: Potency in adenylate cyclase functional assay against Dopamine receptor D1.
A further assay deals with D(2) dopamine receptor (Homo sapiens, UniProt P14416). Briefly: Binding affinity to human Dopamine receptor D2 by using radioligand [3H]spiperone in LTK cells. Type of assay: cell-based.
Assay [2] concerns the target T1, D(1A) dopamine receptor. The assay is described as follows: Intrinsic activity relative against Dopamine receptor D1. The format is functional.
For assay [3], the target named is T1, D(1A) dopamine receptor. Briefly: Binding affinity to Dopamine receptor D1 by using radioligand [125I]SCH-23982 in HEK cells. The format is cell-based, HEK293.
Assay [4] addresses Dopamine D1 and D2 receptor (Homo sapiens) (UniProt P14416+P21728). Briefly: Ratio of Ki for human dopamine-2(D-2) and dopamine-1(D-1) receptors. The format is protein assay.

D(2) dopamine receptor, sequence (P14416 whole entry): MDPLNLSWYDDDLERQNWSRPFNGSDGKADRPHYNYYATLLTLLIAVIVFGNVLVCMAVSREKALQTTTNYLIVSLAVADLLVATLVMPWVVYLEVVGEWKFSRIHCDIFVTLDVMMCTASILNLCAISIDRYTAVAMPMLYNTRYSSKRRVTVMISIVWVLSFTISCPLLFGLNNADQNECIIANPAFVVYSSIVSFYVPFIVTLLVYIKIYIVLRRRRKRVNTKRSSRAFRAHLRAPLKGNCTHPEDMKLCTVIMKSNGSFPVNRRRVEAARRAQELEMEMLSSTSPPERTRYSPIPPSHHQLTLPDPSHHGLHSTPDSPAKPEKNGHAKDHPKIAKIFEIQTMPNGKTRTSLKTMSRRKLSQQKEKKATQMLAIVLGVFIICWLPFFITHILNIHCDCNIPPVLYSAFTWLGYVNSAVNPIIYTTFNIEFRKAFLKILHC
Dopamine D1 and D2 receptor (Homo sapiens), sequence (P14416 whole entry, looked up): as the sequence (P14416 whole entry) above
Dopamine D1 and D2 receptor (Homo sapiens), sequence (P21728 whole entry, looked up): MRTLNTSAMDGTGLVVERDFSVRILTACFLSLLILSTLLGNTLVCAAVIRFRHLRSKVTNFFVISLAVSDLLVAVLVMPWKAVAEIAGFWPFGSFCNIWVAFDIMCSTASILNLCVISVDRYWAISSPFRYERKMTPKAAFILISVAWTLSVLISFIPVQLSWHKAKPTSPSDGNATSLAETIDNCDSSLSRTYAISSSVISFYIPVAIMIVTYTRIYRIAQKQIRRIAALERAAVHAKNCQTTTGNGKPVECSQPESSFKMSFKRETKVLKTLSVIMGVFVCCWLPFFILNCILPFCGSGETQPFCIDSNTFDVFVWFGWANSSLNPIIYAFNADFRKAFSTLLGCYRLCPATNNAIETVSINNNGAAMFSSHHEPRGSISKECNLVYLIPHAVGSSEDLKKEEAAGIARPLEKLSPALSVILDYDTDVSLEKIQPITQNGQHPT
T1 sequence (P21728 whole entry): as the sequence (P21728 whole entry, looked up) above

Compound `Cc1cncc2c1CN[C@@H]1CCc3cc(O)c(O)cc3[C@@H]21` had a pEC50 at D(1A) dopamine receptor [1] of 6.64. For the same compound, the results for the pKi at D(2) dopamine receptor and at D(1A) dopamine receptor [3] were 6.40 and 5.96, respectively. In addition, on D(1A) dopamine receptor [2], the Intrinsic activity amounted to 75%. The Ratio in assay [4] was determined as 0.36.
Compound `Cc1cnc2c(c1)[C@@H]1c3cc(O)c(O)cc3CC[C@H]1NC2` had a negative-log EC50 (pEC50) on D(1A) dopamine receptor [1] of 6.96. Also, the pKi at D(2) dopamine receptor is 4.92; at D(1A) dopamine receptor [3], 6.62. Besides, the Intrinsic activity on D(1A) dopamine receptor [2] came out at 156%. In assay [4], the Ratio was 50.
The corresponding values for `Oc1cc2c(cc1O)[C@H]1c3cncc(F)c3CN[C@@H]1CC2` are 6.10, 6.05, 6.41, 126% and 2.
On to `Oc1cc2c(cc1O)[C@H]1c3ccccc3CN[C@@H]1CC2`, for which the Intrinsic activity at D(1A) dopamine receptor [2] was found to be 121%.
Turning to `CCCc1cc2c(s1)CN[C@@H]1CCc3cc(O)c(O)cc3[C@@H]21`, the Intrinsic activity on D(1A) dopamine receptor [2] was 125%. Besides, the Ratio in assay [4] stood at 14.
For the compound `COc1ccc2c(n1)CN[C@@H]1CCc3cc(O)c(O)cc3[C@@H]21`, the negative logarithm of the EC50 (pEC50) at D(1A) dopamine receptor [1] is 8.06. For the same compound, the values for the pKi on D(2) dopamine receptor and at D(1A) dopamine receptor [3] were 6.28 and 7.31, respectively. For the same compound, at D(1A) dopamine receptor [2], the Intrinsic activity amounted to 114%. For the same compound, the Ratio in assay [4] stood at 11.
In the case of `Oc1cc2c(cc1O)[C@H]1c3ccc(F)nc3CN[C@@H]1CC2`, the pEC50 at D(1A) dopamine receptor [1] is 7.74. Further, the figures for the pKi on D(2) dopamine receptor and on D(1A) dopamine receptor [3] were 5.66 and 6.74, respectively. Besides, the Intrinsic activity on D(1A) dopamine receptor [2] came out at 141%. Also, the Ratio in assay [4] came out at 12.
The corresponding values for `CCCc1ccc2c(n1)CN[C@@H]1CCc3cc(O)c(O)cc3[C@@H]21` are 8.07, 6.35, 7.35, 116% and 10.
The corresponding values for `Oc1cc2c(cc1O)[C@H]1c3cc4c(nc3CN[C@@H]1CC2)CCCC4` are 7.20, 5.44, 6.25, 136% and 6.
`Oc1cc2c(cc1O)[C@H]1c3cccnc3CN[C@@H]1CC2` showed a pEC50 on D(1A) dopamine receptor [1] of 8.17. Moreover, the pKi at D(2) dopamine receptor was 5.60; on D(1A) dopamine receptor [3], 7.19. In addition, the Intrinsic activity at D(1A) dopamine receptor [2] is 125%. In assay [4], the Ratio is 38.
The corresponding values for `Cc1ccc2c(n1)CN[C@@H]1CCc3cc(O)c(O)cc3[C@@H]21` are 7.64, 5.85, 6.85, 121% and 10.
Consider `Oc1cc2c(cc1O)[C@H]1c3ccncc3CN[C@@H]1CC2`, for which the pEC50 at D(1A) dopamine receptor [1] is 7.42. Also, the pKi on D(2) dopamine receptor is 5.36; at D(1A) dopamine receptor [3], 6.85. The Intrinsic activity on D(1A) dopamine receptor [2] came out at 131%. Also, the Ratio in assay [4] was 31.
The corresponding values for `CCCCc1cnc2c(c1)[C@@H]1c3cc(O)c(O)cc3CC[C@H]1NC2` are 6.74, 5.72, 6.05, 118% and 2.
`Cc1cc2c(nc1C)CN[C@@H]1CCc3cc(O)c(O)cc3[C@@H]21` had a negative logarithm of the EC50 (pEC50) on D(1A) dopamine receptor [1] of 6.92. The pKi at D(2) dopamine receptor is 5.04; on D(1A) dopamine receptor [3] it was 6.55. In addition, the Intrinsic activity at D(1A) dopamine receptor [2] is 134%. Besides, the Ratio in assay [4] stood at 33.
The corresponding values for `Oc1cc2c(cc1O)[C@H]1c3cnccc3CN[C@@H]1CC2` are 6.49, 5.89, 5.96, 81% and 1.
